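Results reflect a 48-hour exposure of cells in 96-well plates to compound at five concentrations. The concentration for 50% growth inhibition is given as GI50.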 Active and inactive are the calls of the source. Rule as the data show it: active = GI50 up to about 1.1 µM and inactive = higher.
Key:
Test in all cases: NCI tumour cell line growth inhibition, 48 h
Hs-578T = tested on: Hs-578T
SF-295 = tested on: SF-295
UACC-62 = tested on: UACC-62
DU-145 = tested on: DU-145
EKVX = tested on: EKVX
NCI-H522 = tested on: NCI-H522
MDA-N = tested on: MDA-N
SNB-19 = tested on: SNB-19
SF-539 = tested on: SF-539
PC-3 = tested on: PC-3
MDA-MB-231 = tested on: MDA-MB-231
RPMI-8226 = tested on: RPMI-8226
786-0 = tested on: 786-0
UACC-257 = tested on: UACC-257
M14 = tested on: M14
KM12 = tested on: KM12
K562 = tested on: K562
A549 = tested on: A549
HOP-62 = tested on: HOP-62
MOLT-4 = tested on: MOLT-4

Measured: GI50

CC1CCC2C(C(=O)O[C@H]3C4C=CO[C@@H](OC5OC(CO)C(O)C(O)C5O)C4[C@@]4(CO)O[C@@H]34)=CO[C@@H](OC3OC(CO)C(O)C(O)C3O)C12 (stereo not given in full)
inactive: Hs-578T > 10 µM | SF-295 > 10 µM | UACC-62 > 10 µM | DU-145 > 10 µM | EKVX > 10 µM | NCI-H522 > 10 µM | MDA-N > 10 µM | SNB-19 > 10 µM | SF-539 > 10 µM | PC-3 > 10 µM | MDA-MB-231 > 10 µM | RPMI-8226 > 10 µM | 786-0 > 10 µM | UACC-257 > 10 µM | M14 > 10 µM | KM12 > 10 µM | K562 > 10 µM | A549 > 10 µM | HOP-62 > 10 µM | MOLT-4 > 10 µM

— ChEMBL document CHEMBL1201862, “PubChem BioAssay data set” (2004)
